Reference: patent publication US20250206732A1, “COMPOUNDS AND METHODS FOR THE TARGETED DEGRADATION OF KRAS” (Arvinas Operations, Inc., priority 2022, published 2025)

Target: T1, AsPC-1 HiBiT-KRASG12D (Homo sapiens, UniProt P01116, G12D)
T1 construct: insert the HiBiT tag onto the N-terminus of one or more of the endogenous KRAS alleles; endogenous in cells; host or cells: AsPC-1 (ATCC CRL-1682), CRISPR-Cas9 knock-in clone, one tagged allele
Test: HiBiT degradation assay (G12D), AsPC-1 HiBiT-KRASG12D cells
Type: cell-based
Conditions: 24 hours treatment; for Dmax: ASPC1, AsPC-1 HiBiT-KRASG12D cells, maximum degradation observed; for DC50: AsPC-1 HiBiT-KRASG12D cells, HiBiT luminescence
How it was run: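 In this degradation format, an engineered AsPC-1 clone with HiBiT fused to the KRAS N-terminus is exposed to compounds for 24 hours, after which remaining tagged protein is quantified by lytic HiBiT luminescence.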

T1 sequence (P01116 1-188 isoform P01116-2 G12D): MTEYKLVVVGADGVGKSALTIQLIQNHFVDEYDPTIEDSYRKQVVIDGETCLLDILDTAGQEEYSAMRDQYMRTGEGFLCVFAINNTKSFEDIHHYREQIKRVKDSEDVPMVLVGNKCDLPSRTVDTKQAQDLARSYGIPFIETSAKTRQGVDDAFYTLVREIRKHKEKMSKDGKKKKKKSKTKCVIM

Row | SMILES | Dmax | DC50
1 | C#Cc1c(F)ccc2cc(O)cc(-c3ncc4c(N5CC6CCC(C5)N6)nc(OCCN5CCC(F)(CN6CCN(c7cc([C@@H](C(=O)N8C[C@H](O)C[C@H]8C(=O)N[C@@H](C)c8ccc(-c9ccnn9C)cc8)C(C)C)on7)CC6)CC5)nc4c3F)c12 [Compound 171, (2S,4R)-1-[(2S)-2-(3-{4-[(1-{2-[(4-{3,8-diazabicyclo[3.2.1]octan-3-yl}-7-(8-ethynyl-7-fluoro-3-hydroxynaphthalen-1-yl)-8-fluoropyrido[4,3-d]pyrimidin-2-yl)oxy]ethyl}-4-fluoropiperidin-4-yl)methyl]piperazin-1-yl}-1,2-oxazol-5-yl)-3-methylbutanoyl]-4-hydroxy-N-[(1S)-1-[4-(1-methyl-1H-pyrazol-5-yl)phenyl]ethyl]pyrrolidine-2-carboxamide] | 20 to 60% | 1000 to 3000 nM
2 | CCc1cccc2cc(O)cc(-c3ncc4c(N5CC6CCC(C5)N6C=O)nc(OCCN5CCC6(CC5)CN(c5cc([C@H](C(=O)N7C[C@H](O)C[C@H]7C(=O)N[C@@H](C)c7ccc(-c8scnc8C)cc7)C(C)C)on5)C6)nc4c3F)c12 [Compound 290, (2S,4R)-1-[(2R)-2-[3-[7-[2-[7-(8-ethyl-3-hydroxy-1-naphthyl)-8-fluoro-4-(8-formyl-3,8-diazabicyclo[3.2.1]octan-3-yl)pyrido[4,3-d]pyrimidin-2-yl]oxyethyl]-2,7-diazaspiro[3.5]nonan-2-yl]isoxazol-5-yl]-3-methyl-butanoyl]-4-hydroxy-N-[(1S)-1-[4-(4-methylthiazol-5-yl)phenyl]ethyl]pyrrolidine-2-carboxamide] | – | > 3000 nM
3 | CCc1cccc2cc(O)cc(-c3ncc4c(N5CCCCCC5)nc(OC[C@@H]5CC[C@@H](COC(=O)N6CCN(c7cc([C@H](C(=O)N8C[C@H](O)C[C@H]8C(=O)N[C@@H](C)c8ccc(-c9scnc9C)cc8)C(C)C)on7)[C@H](C)C6)N5C)nc4c3F)c12 [Compound 230, [(2S,5S)-5-[[4-(azepan-1-yl)-7-(8-ethyl-3-hydroxy-1-naphthyl)-8-fluoro-pyrido[4,3-d]pyrimidin-2-yl]oxymethyl]-1-methyl-pyrrolidin-2-yl]methyl (3R)-4-[5-[(1R)-1-[(2S,4R)-4-hydroxy-2-[[(1S)-1-[4-(4-methylthiazol-5-yl)phenyl]ethyl]carbamoyl]pyrrolidine-1-carbonyl]-2-methyl-propyl]isoxazol-3-yl]-3-methyl-piperazine-1-carboxylate] | 60 to 80% | < 600 nM
4 | CCc1cccc2cc(O)cc(-c3ncc4c(N5CC6CCC(C5)N6)nc(OCCN5CCC(CN6CCN(c7cc([C@H](C(=O)N8C[C@H](O)C[C@H]8C(=O)N[C@@H](C)c8ccc(-c9scnc9C)cc8)C(C)C)on7)CC6)CC5)nc4c3F)c12 (relative stereo) [Compound 276] | 80 to 100% | < 600 nM
5 | CCc1cccc2cc(O)cc(-c3ncc4c(N5CC6CCC(C5)N6)nc(OC[C@@H]5CC[C@@H](COC(=O)N6CCN(c7cc([C@@H](C(=O)N8C[C@H](O)C[C@H]8C(=O)N[C@@H](C)c8ccc(-c9scnc9C)cc8)C(C)C)on7)CC6)N5C)nc4c3F)c12 [Compound 289, [(2S,5S)-5-[[4-(3,8-diazabicyclo[3.2.1]octan-3-yl)-7-(8-ethyl-3-hydroxy-1-naphthyl)-8-fluoro-pyrido[4,3-d]pyrimidin-2-yl]oxymethyl]-1-methyl-pyrrolidin-2-yl]methyl 4-[5-[(1S)-1-[(2S,4R)-4-hydroxy-2-[[(1S)-1-[4-(4-methylthiazol-5-yl)phenyl]ethyl]carbamoyl]pyrrolidine-1-carbonyl]-2-methyl-propyl]isoxazol-3-yl]piperazine-1-carboxylate] | 20 to 60% | 1000 to 3000 nM
6 | CCc1cccc2cc(O)cc(-c3ncc4c(N5CC6CCC(C5)N6)nc(OC[C@H]5CN(CC6CN(c7cc([C@@H](C(=O)N8C[C@H](O)C[C@H]8C(=O)N[C@@H](C)c8ccc(-c9scnc9C)cc8)C(C)C)on7)C6)CCN5C)nc4c3F)c12 [Compound 181, (2S,4R)-1-[(2S)-2-[3-(3-{[(3R)-3-{[(4-{3,8-diazabicyclo[3.2.1]octan-3-yl}-7-(8-ethyl-3-hydroxynaphthalen-1-yl)-8-fluoropyrido[4,3-d]pyrimidin-2-yl)oxy]methyl}-4-methylpiperazin-1-yl]methyl}azetidin-1-yl)-1,2-oxazol-5-yl]-3-methylbutanoyl]-4-hydroxy-N-[(1S)-1-[4-(4-methyl-1,3-thiazol-5-yl)phenyl]ethyl]pyrrolidine-2-carboxamide] | – | > 3000 nM
7 | C#Cc1c(F)ccc2cc(O)cc(-c3ncc4c(N5CC6CCC(C5)N6)nc(OCCN5CCC6(CC5)CN(c5cc([C@@H](C(=O)N7C[C@H](O)C[C@H]7C(=O)N[C@@H](C)c7ccc(-c8ccnn8C)cc7)C(C)C)on5)C6)nc4c3F)c12 (relative stereo) [Compound 84, (2S,4R)-1-[(2R*)-2-[3-(7-{2-[(4-{3,8-diazabicyclo[3.2.1]octan-3-yl}-7-(8-ethynyl-7-fluoro-3-hydroxynaphthalen-1-yl)-8-fluoropyrido[4,3-d]pyrimidin-2-yl)oxy]ethyl}-2,7-diazaspiro[3.5]nonan-2-yl)-1,2-oxazol-5-yl]-3-methylbutanoyl]-4-hydroxy-N-[(1S)-1-[4-(1-methyl-1H-pyrazol-5-yl)phenyl]ethyl]pyrrolidine-2-carboxamide] | 60 to 80% | 1000 to 3000 nM
8 | Cc1ncsc1-c1ccc([C@H](C)NC(=O)[C@@H]2C[C@@H](O)CN2C(=O)[C@@H](c2cc(OCC3CCN(CCOc4nc(N5CC6CCC(C5)N6)c5cnc(-c6cc(O)cc7cccc(C)c67)c(F)c5n4)CC3)no2)C(C)C)cc1 [Compound 60, (2S,4R)-1-[(2R)-2-{3-[(1-{2-[(4-{3,8-diazabicyclo[3.2.1]octan-3-yl}-8-fluoro-7-(3-hydroxy-8-methylnaphthalen-1-yl)pyrido[4,3-d]pyrimidin-2-yl)oxy]ethyl}piperidin-4-yl)methoxy]-1,2-oxazol-5-yl}-3-methylbutanoyl]-4-hydroxy-N-[(1S)-1-[4-(4-methyl-1,3-thiazol-5-yl)phenyl]ethyl]pyrrolidine-2-carboxamide] | 60 to 80% | < 600 nM
9 | CCc1cccc2cc(O)cc(-c3ncc4c(N5CC6CCC(C5)N6)nc(OCCN5CCC(F)(CN6CCN(c7cc([C@H](C(=O)N8C[C@H](O)C[C@H]8C(=O)N[C@@H](C)c8ccc(-c9scnc9C)cc8)C(C)C)on7)[C@H](C)C6)CC5)nc4c3F)c12 [Compound 194, (2S,4R)-1-[(2R)-2-{3-[(2R)-4-[(1-{2-[(4-{3,8-diazabicyclo[3.2.1]octan-3-yl}-7-(8-ethyl-3-hydroxynaphthalen-1-yl)-8-fluoropyrido[4,3-d]pyrimidin-2-yl)oxy]ethyl}-4-fluoropiperidin-4-yl)methyl]-2-methylpiperazin-1-yl]-1,2-oxazol-5-yl}-3-methylbutanoyl]-4-hydroxy-N-[(1S)-1-[4-(4-methyl-1,3-thiazol-5-yl)phenyl]ethyl]pyrrolidine-2-carboxamide] | 80 to 100% | < 600 nM
10 | CCc1cccc2cc(O)cc(-c3ncc4c(N5CC6CCC(C5)N6)nc(OCCN5CCC(CCOc6cc([C@H](C(=O)N7C[C@H](O)C[C@H]7C(=O)N[C@@H](C)c7ccc(-c8scnc8C)cc7)C(C)C)on6)CC5)nc4c3F)c12 [Compound 249] | 80 to 100% | < 600 nM
11 | CCc1cccc2cc(O)cc(-c3ncc4c(N5CCCCCC5)nc(OC[C@@]56CCCN5[C@H](COc5cc([C@H](C(=O)N7C[C@H](O)C[C@H]7C(=O)N[C@@H](C)c7ccc(-c8scnc8C)cc7)C(C)C)on5)CC6)nc4c3F)c12 (single isomer, unassigned) [Compound 338] | 80 to 100% | < 600 nM
12 | CCc1cccc2cc(O)cc(-c3ncc4c(N5CC6CCC(C5)N6)nc(OCCN5CCC6(CC5)CN(c5cc([C@H](C(=O)N7C[C@H](O)C[C@H]7C(=O)NCc7ccc(-c8scnc8C)cc7)C(C)C)on5)C6)nc4c3F)c12 (relative stereo) [Compound 98, (2S,4R)-1-[(2R*)-2-[3-(7-{2-[(4-{3,8-diazabicyclo[3.2.1]octan-3-yl}-7-(8-ethyl-3-hydroxynaphthalen-1-yl)-8-fluoropyrido[4,3-d]pyrimidin-2-yl)oxy]ethyl}-2,7-diazaspiro[3.5]nonan-2-yl)-1,2-oxazol-5-yl]-3-methylbutanoyl]-4-hydroxy-N-{[4-(4-methyl-1,3-thiazol-5-yl)phenyl]methyl}pyrrolidine-2-carboxamide] | 80 to 100% | < 600 nM
13 | C#Cc1c(F)ccc2cc(O)cc(-c3ncc4c(N5CC6CCC(C5)N6)nc(OCCN5CCC(CC6CCN(c7cc([C@H](C(=O)N8C[C@H](O)C[C@H]8C(=O)N[C@@H](C)c8ccc(-c9scnc9C)cc8)C(C)C)on7)CC6)CC5)nc4c3F)c12 (relative stereo) [Compound 307, (2S,4R)-1-((R)-2-(3-(4-((1-(2-((4-((1R,5S)-3,8-diazabicyclo[3.2.1]octan-3-yl)-7-(8-ethynyl-7-fluoro-3-hydroxynaphthalen-1-yl)-8-fluoropyrido[4,3-d]pyrimidin-2-yl)oxy)ethyl)piperidin-4-yl)methyl)piperidin-1-yl)isoxazol-5-yl)-3-methylbutanoyl)-4-hydroxy-N—((S)-1-(4-(4-methylthiazol-5-yl)phenyl)ethyl)pyrrolidine-2-carboxamide] | 80 to 100% | < 600 nM
